Assay results: patent US7691444B2, “Preservatives for wood-based products” (LANXESS Deutschland GmbH, priority 2002, dated 2010)
Like-named read-outs stand apart in the source and are kept apart here.

Assays:
[1] = Stability under the conditions of the glue-line treatment; type: physicochemical
[2] = test system: Tyromyces palustris; assay: Standard rot trial (Japan Wood Preservers Association Standard Test procedure) on glueline-treated plywood; type: cell-based; conditions: phenol formaldehyde glue
[3] = cited from earlier work
[4] = test system: decay causing fungi; assay: Efficacy in the glue-line under alkaline conditions (PF type glues); conditions: alkaline conditions such as PF type glues
[5] = use rate 100 gram a.i./m^3 in the glueline of plywood from pinus spp
[6] = use rate 200 gram a.i./m^3 in the glueline of plywood from pinus spp
[7] = use rate 400 gram a.i./m^3 in the glueline of plywood from pinus spp
[8] = use rate 800 gram a.i./m^3 in the glueline of plywood from pinus spp

Structure (SMILES): CC(C)(C)C(=O)C(Oc1ccc(Cl)cc1)n1cncn1 (racemic) [triadimefon, (±)1-(4-chlorophenoxy)-3,3-dimethyl-1-(1H-1,2,4-triazol-1-yl)butan-2-one]
- Stability under the conditions of the glue-line treatment ([1]; glue-line treatment): stable
- Efficacy against target organism (expressed as weight loss percent in a standard rot trial) [2, 5]: 3.7%
- Efficacy against target organism (expressed as weight loss percent in a standard rot trial) [2, 6]: 0.5%
- Efficacy against target organism (expressed as weight loss percent in a standard rot trial) [2, 7]: 0.9%
- Efficacy against target organism (expressed as weight loss percent in a standard rot trial) [2, 8]: 1.4%
- Use rate range (agricultural uses) [3]: 125–500 g/ha

Structure (SMILES): CC(C)(C)C(O)C(Oc1ccc(Cl)cc1)n1cncn1 (racemic) [triadimenol, (±) 1-(4-chlorophenoxy)-3,3-dimethyl-1-(1H-1,2,4-triazol-1-yl)butan-2-ol]
- Stability under the conditions of the glue-line treatment [1]: stable
- Use rate range (agricultural uses) [3]: 125–500 g/ha
- Efficacy relative to triadimefon [4]: same efficacy as triadimefon

Structure (SMILES): CCCC1COC(Cn2cncn2)(c2ccc(Cl)cc2Cl)O1 (stereo not shown) [propiconazole]
- Efficacy against target organism (expressed as weight loss percent in a standard rot trial) [2, 5]: 20.5%
- Efficacy against target organism (expressed as weight loss percent in a standard rot trial) [2, 6]: 7.6%
- Efficacy against target organism (expressed as weight loss percent in a standard rot trial) [2, 7]: 21.4%
- Efficacy against target organism (expressed as weight loss percent in a standard rot trial) [2, 8]: 1.8%
- Use rate range (agricultural uses) [3]: 100–150 g/ha

Structure (SMILES): CC(C)(C)C(O)(CCc1ccc(Cl)cc1)Cn1cncn1 (stereo not shown) [tebuconazole]
- Efficacy against target organism (expressed as weight loss percent in a standard rot trial) ([2]; use rate 80 gram a.i./m^3 in the glueline of plywood from pinus spp): 9.2%
- Efficacy against target organism (expressed as weight loss percent in a standard rot trial) ([2]; use rate 160 gram a.i./m^3 in the glueline of plywood from pinus spp): 20.9%
- Efficacy against target organism (expressed as weight loss percent in a standard rot trial) ([2]; use rate 320 gram a.i./m^3 in the glueline of plywood from pinus spp): 6.3%
- Efficacy against target organism (expressed as weight loss percent in a standard rot trial) ([2]; use rate 640 gram a.i./m^3 in the glueline of plywood from pinus spp): 18.5%
- Use rate range (agricultural uses) [3]: 100–250 g/ha
